Test results taken from US6953813B1, “2-Aminotetralin derivatives for the therapy of glaucoma” (Chiesi Farmaceutici S.p.A., priority 1999, dated 2005).

Key:
[1] = system: New-Zealand albino rabbits; assay: IOP after repeated administration in rabbits with α-chymotrypsin-increased IOP; format: in vivo, rabbit; details: two drops of 5% solution per eye every 6 hours
Method: The effectiveness of CHF 1035 after repeated administration was tested in a study versus placebo, in 20 New-Zealand albino rabbits. In order to induce a chronic increase of the IOP, each animal was intraocularly injected with 0.5 mg/day of α-chymotrypsin for five days. Starting from the first day of treatment, two drops of physiological saline containing 5% of the drug were instilled in each eye every 6 hours. The control animals only received physiological saline.
The IOP measurement was performed as described in example 1, before the injection and subsequently every day until the 10th day.
FIG. 2 reports the effect of CHF 1035 on rabbit IOP after α-chymotrypsin injection. Values are reported as mean (SE=1.2-2.6; n=20 per group).

pKa = format: physicochemical
From the text: The higher apparent partition coefficient would be more favorable for ophthalmic absorption. However, an acid aqueous solution should be used as a vehicle for eyedrop administration due to the better chemical stability of CHF 1035 in such pH range. The theoretical log Papp of the corresponding not esterified derivative turned out to be −0.9 at pH 7.4.

[2] = system: normotensive Dutch Belted rabbits; assay: Eye irritation by extent of eyelid closure after topical eyedrop; format: in vivo, rabbit; details: single dose 25 μl of 0.5%, 0.2%, 0.05% and 0.01% solution
Method: The experimental animals used were normotensive Dutch Belted rabbits of either gender (n=6). A single drop (25 μl) of the test solution was instilled unilaterally into the left eye (treated eye). IOP of the rabbits (treated and untreated eyes) was measured at 1 and 0 h before, and at 0.5, 1, 2, 3, 4, 5, 6 and 7 h after topical eyedrop administration. IOP at the time of eyedrop administration (0 h) was used as a baseline value. IOP was measured using a BioRad Pneumatonometer. More detailed description of the IOP measurement procedure can be found in Pharm. Res. 14, 1738-1743, 1997 and Curr. Eye Res. 14, 791-797, 1995. All the studies were set up using a randomized crossover design. At least 72 h of wash-out time was allowed for each rabbit between dosings. The irritation caused by an instilled eyedrop were evaluated by recording the extent of eyelid closure after topical eyedrop administration.

Ocular tolerability = format: in vivo
[3] = system: New-Zealand albino rabbits; assay: IOP after single dose in rabbits with water-increased IOP; format: in vivo, rabbit; details: two drops of 5% solution per eye, one hour before 200 ml oral water
Method: A study versus placebo was carried out in 20 New-Zealand albino rabbits to evaluate the effects of CHF 1035 after single administration. Basal intraocular pressure (IOP) was measured in anaesthetized rabbits in both eyes. Each eye received two drops of physiological solution containing 5% of the drug. Control animals received only physiological solution. After one hour, the animals were administered by oral route with a total amount of 200 ml of distilled water. IOP increased within about one hour and normalized after about 3 hours. As no differences in IOP were observed between the two eyes, the respective tonometric curves were superimposed. IOP measurements were carried out by using a Goldman tonometer and were repeated one hour after the administration of water.
Values are expressed as mean (SE^132 1.6-2.7). The total number of eyes per group is in brackets.

CNC1CCc2c(ccc(OC(=O)C(C)C)c2OC(=O)C(C)C)C1 (racemic) [CHF 1035, (±)-(R,S)-5,6-diisobutyryloxy-2-methylaminotetralin]
tolerability during the whole cycle of treatment [1]: well tolerated during the whole cycle of treatment and induced no eye irritation and/or discomfort
IOP after α-chymotrypsin injection versus placebo ([1]; up to 10th day): significantly lower IOP than animals treated with placebo
pKa (pKa): 9.4
eye irritation (eyelid closure) [2]: no eyelid closure was observed
concentration up to which well tolerated (no redness, blinking or other side effects) (Ocular tolerability): up to 5%
IOP after water loading versus control animals [3]: IOP value significantly lower than control animals
